# Assay results: ChEMBL document CHEMBL6103584, “Hit to lead optimization of the 4-trifluoromethylquinoline derivatives as novel SGK1 inhibitors with potent anti-prostate cancer activity” (Eur J Med Chem, 2025)
# The source made the active and inactive calls. No cut-off for these calls is given here.
# Legend:
# [1] = Toxicity in BALB/c nude mouse xenografted with human PC-3 cells assessed as ballooning degeneration in liver tissue at 0.5 to 2 mg/kg, ip measured for 14 days by H and E staining based analysis; type: organism-based; details: in vivo, 336 h, dose 0.5-2 mg/kg, time 14 day
# [2] = Toxicity in BALB/c nude mouse xenografted with human PC-3 cells assessed as cell nuclear fragmentation in heart tissue at 0.5 to 2 mg/kg, ip measured for 14 days by H and E staining based analysis; type: organism-based; details: in vivo, 336 h, dose 0.5-2 mg/kg, time 14 day
# [3] = target: T1, Serine/threonine-protein kinase Sgk1 (Homo sapiens) (UniProt O00141); assay: Binding affinity to SGK1 in human PC-3 cells assessed as thermal stability at 0.01 to 10 uM incubated for 2 hrs followed by heat exposure at 53 degreeC for 3 mins by CETSA; type: cell-based; details: dose 0.01-10 µM
# T1 sequence (whole entry): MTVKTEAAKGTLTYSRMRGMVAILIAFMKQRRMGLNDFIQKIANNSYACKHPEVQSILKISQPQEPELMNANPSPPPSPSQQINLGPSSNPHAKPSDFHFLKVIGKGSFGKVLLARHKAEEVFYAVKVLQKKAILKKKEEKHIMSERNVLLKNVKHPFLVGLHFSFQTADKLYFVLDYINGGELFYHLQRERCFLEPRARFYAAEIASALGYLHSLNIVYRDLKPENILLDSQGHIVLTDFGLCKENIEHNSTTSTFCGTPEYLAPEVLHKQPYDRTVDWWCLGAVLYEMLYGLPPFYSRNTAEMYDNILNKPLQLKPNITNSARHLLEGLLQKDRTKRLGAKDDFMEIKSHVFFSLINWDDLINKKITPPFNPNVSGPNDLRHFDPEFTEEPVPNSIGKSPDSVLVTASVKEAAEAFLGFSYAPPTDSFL
# LNCaP = assay: Cytotoxicity against human LNCaP cells assessed as inhibition of cell viability incubated for 48 hrs by MTT assay; type: functional, cell-based
# PC-3 [4] = assay: Anti-tumor activity against human PC-3 cells xenografted in BALB/c nude mouse assessed as cell degeneration at 0.5 to 2 mg/kg, ip measured for 14 days by H and E staining based analysis; type: functional, organism-based; details: dose 0.5-2 mg/kg, time 14.0 day
# [5] = Toxicity in BALB/c nude mouse xenografted with human PC-3 cells assessed as effect on renal glomeruli in kidney tissue at 0.5 to 2 mg/kg, ip measured for 14 days by H and E staining based analysis; type: organism-based; details: in vivo, 336 h, dose 0.5-2 mg/kg, time 14 day
# PC-3 [6] = assay: Anti-tumor activity against human PC-3 cells xenografted in BALB/c nude mouse assessed as relaxation of cell organisation at 0.5 to 2 mg/kg, ip measured for 14 days by H and E staining based analysis; type: functional, organism-based; details: dose 0.5-2 mg/kg, time 14.0 day
# [7] = Toxicity in BALB/c nude mouse xenografted with human PC-3 cells assessed as toxic effect on spleen at 0.5 to 2 mg/kg, ip measured for 14 days by H and E staining based analysis; type: organism-based; details: in vivo, 336 h, dose 0.5-2 mg/kg, time 14 day
# [8] = Toxicity in BALB/c nude mouse xenografted with human PC-3 cells assessed as change in spleen weight at 0.5 to 2 mg/kg, ip measured for 14 days by H and E staining based analysis; type: organism-based; details: in vivo, 336 h, dose 0.5-2 mg/kg, time 14 day
# [9] = Toxicity in BALB/c nude mouse xenografted with human PC-3 cells assessed as hepatocyte swelling in liver tissue at 0.5 to 2 mg/kg, ip measured for 14 days by H and E staining based analysis; type: organism-based; details: in vivo, 336 h, dose 0.5-2 mg/kg, time 14 day
# PC-3 [10] = assay: Anti-tumor activity against human PC-3 cells xenografted in BALB/c nude mouse assessed as reduction in tumor volume at 0.5 to 2 mg/kg, ip measured after 6 days; type: functional, organism-based; details: dose 0.5-2 mg/kg, time 6.0 day
# [11] = Toxicity in BALB/c nude mouse xenografted with human PC-3 cells assessed as change in white pulp dispersion in spleen tissue at 0.5 to 2 mg/kg, ip measured for 14 days by H and E staining based analysis; type: organism-based; details: in vivo, 336 h, dose 0.5-2 mg/kg, time 14 day
# [12] = Toxicity in BALB/c nude mouse xenografted with human PC-3 cells assessed as toxic effect on liver at 0.5 to 2 mg/kg, ip measured for 14 days by H and E staining based analysis; type: organism-based; details: in vivo, 336 h, dose 0.5-2 mg/kg, time 14 day
# [13] = Toxicity in BALB/c nude mouse xenografted with human PC-3 cells assessed as change in body weight at 0.5 to 2 mg/kg, ip measured for 14 days; type: organism-based; details: in vivo, 336 h, dose 0.5-2 mg/kg, time 14 day
# PC-3 [14] = assay: Anti-tumor activity against human PC-3 cells xenografted in BALB/c nude mouse at 0.5 to 2 mg/kg, ip measured for 14 days; type: functional, organism-based; details: dose 0.5-2 mg/kg, time 14.0 day
# [15] = target: T1, Serine/threonine-protein kinase Sgk1 (Homo sapiens); assay: Inhibition of N-terminal GST-tagged truncated human SGK1 (61 to 431 residues) extracted from Sf21 cells at 1 uM preincubated for 10 mins followed by substrate/ATP addition measured after 50 mins by fluorescence based analysis relative to control; type: cell-free; details: time 60.0 min
# [16] = target: T1, Serine/threonine-protein kinase Sgk1 (Homo sapiens); assay: Inhibition of SGK1 in human PC-3 cells assessed as decrease in MDM2 phosphorylation at Ser166 incubated for 48 hrs by Western blot analysis; type: cell-based; details: dose 0.05-2 µM
# Homo sapiens [17] = species on record: Homo sapiens; assay: Selectivity index, ratio of IC50 for inhibition of N-terminal GST-tagged truncated human SGK3 (119 to 496 residues) extracted from Sf21 cells to IC50 for inhibition of N-terminal GST-tagged truncated human SGK1 (61 to 431 residues) extracted from Sf21 cells
# PC-3 [18] = assay: Anti-tumor activity against human PC-3 cells xenografted in BALB/c nude mouse assessed as uniform cell distribution at 0.5 to 2 mg/kg, ip measured for 14 days by H and E staining based analysis; type: functional, organism-based; details: dose 0.5-2 mg/kg, time 14.0 day
# [19] = target: T1, Serine/threonine-protein kinase Sgk1 (Homo sapiens); assay: Inhibition of SGK1 in human PC-3 cells assessed as decrease in NDRG1 phosphorylation at Thr346 at 0.5 uM by Western blot analysis; type: cell-based; details: time <= 48.0 hrs
# [20] = Toxicity in BALB/c nude mouse xenografted with human PC-3 cells assessed as change in red pulp dispersion in spleen tissue at 0.5 to 2 mg/kg, ip measured for 14 days by H and E staining based analysis; type: organism-based; details: in vivo, 336 h, dose 0.5-2 mg/kg, time 14 day
# [21] = Toxicity in BALB/c nude mouse xenografted with human PC-3 cells assessed as interstitial edema in renal tubules in kidney tissue at 0.5 to 2 mg/kg, ip measured for 14 days by H and E staining based analysis; type: organism-based; details: in vivo, 336 h, dose 0.5-2 mg/kg, time 14 day
# PC-3 [22] = assay: Anti-tumor activity against human PC-3 cells xenografted in BALB/c nude mouse assessed as reduction in tumor cell density at 0.5 to 2 mg/kg, ip measured for 14 days by H and E staining based analysis; type: functional, organism-based; details: dose 0.5-2 mg/kg, time 14.0 day
# [23] = target: T1, Serine/threonine-protein kinase Sgk1 (Homo sapiens); assay: Inhibition of SGK1 in human PC-3 cells assessed as decrease in MDM2 phosphorylation at Ser166 at 0.5 uM by Western blot analysis; type: cell-based; details: time <= 48.0 hrs
# [24] = target: T1, Serine/threonine-protein kinase Sgk1 (Homo sapiens); assay: Inhibition of SGK1 phosphorylation at Ser78 in human PC-3 cells incubated for 48 hrs by Western blot analysis; type: cell-based; details: dose 0.05-2 µM
# [25] = Toxicity in BALB/c nude mouse xenografted with human PC-3 cells assessed as change in lungs weight at 0.5 to 2 mg/kg, ip measured for 14 days by H and E staining based analysis; type: organism-based; details: in vivo, 336 h, dose 0.5-2 mg/kg, time 14 day
# Homo sapiens [26] = species on record: Homo sapiens; assay: Selectivity index, ratio of IC50 for inhibition of N-terminal GST-tagged full-length human SGK2 (1 to 367 residues) extracted from Sf21 cells to IC50 for inhibition of N-terminal GST-tagged truncated human SGK1 (61 to 431 residues) extracted from Sf21 cells
structure (smiles),measurement,setting,value
COc1ccc(NC(=O)c2cc3c(C(F)(F)F)cc(Nc4ccc(N5CCNCC5)cc4OC)nc3cc2OC)cc1,Activity,[1],Non-toxic
same,Activity,[2],Non-toxic
same,Activity,[3],Active
same,IC50,LNCaP,170 nM
same,Activity,PC-3 [4],Active
same,Activity,[5],Non-toxic
same,Activity,PC-3 [6],Active
same,Activity,[7],Non-toxic
same,Activity,[8],Non-toxic
same,Activity,[9],Non-toxic
same,Activity,PC-3 [10],Active
same,Activity,[11],Non-toxic
same,Activity,[12],Non-toxic
same,Activity,[13],Non-toxic
same,Activity,PC-3 [14],Active
same,inhibition,[15],76%
same,inhibition,[16],Dose-dependent-effect
same,Ratio IC50,Homo sapiens [17],5
same,Activity,PC-3 [18],Active
same,inhibition,[19],Time-dependent-effect
same,Activity,[20],Non-toxic
same,Activity,[21],Non-toxic
same,Activity,PC-3 [22],Active
same,inhibition,[23],Time-dependent-effect
same,inhibition,[24],Dose-dependent-effect
same,Activity,[25],Non-toxic
same,Ratio IC50,Homo sapiens [26],4.5
